One assay has as its target T1, human CCR5 (Homo sapiens, UniProt P51681).
T1 construct: expressed in transfected cells; host or cells: CHO-K1 (plasmid pCKR5 in pcDNA3.1, geneticin-selected CHO/CCR5 cells)
The assay can be described thus: inhibition of [^125 I]-RANTES binding to CHO/CCR5 cells (CCR5 antagonistic activity). The following applies: Test Compound 1 μM, 100 pM [^125 I]-RANTES, room temperature 30 minutes; for inhibition at 1 µM: read-out: Inhibition Rate (%) to CCR5 binding. Here is the method:
Cloning of CCR5 gene was carried out by PCR (polymerase chain reaction) from human spleen cDNA. With using 0.5 ng of spleen cDNA (Toyobo, QUICK-Clone cDNA) as template, PCR was performed in DNA Thermal Cycler 480 (Perkin-Elmer) (reaction conditions: 30 cycles of 95° C. for 1 minute, 60° C. for 1 minute, and 75° C. for 5 minutes) by adding primer set, 5'-CAGGATCCGATG […]-3' (25 pmol) and 5'-TCTAGATCACAAGCC CACAGATATTTCCTGCTCC-3' (25 pmol), which were designed referring to nucleotide sequence of CCR5 gene reported by Samson et al. (Biochemistry, 35(11), 3362-3367 (1996)) and by using TaKaRa EX Taq (Takara Shuzo). The resultant PCR product was subjected to agarose gel electrophoresis to collect about 1.0 kb DNA fragment, which was subjected to Original TA Cloning Kit (Funakoshi) to carry out cloning of CCR5 gene.
The plasmid obtained in the above (1) was digested with restriction enzymes XbaI (Takara Shuzo) and BamHI (Takara Shuzo) and subjected to agarose gel electrophoresis to collect about 1.0 kb DNA fragment. The DNA fragment was mixed with plasmid pcDNA3.1 (Funakoshi) for expression in animal cells, said plasmid being digested with XbaI and BamHI, and they were ligated with DNA Ligation Kit Ver.2 (Takara Shuzo). The resulting plasmid was subjected to transformation of competent cell of E. coli JM109 (Takara Shuzo) to obtain plasmid pCKR^5.
CHO-K1 cells were grown in 750 ml of tissue culture flask (Becton Dickinson) using Ham's F12 medium (Nihon Pharmaceutical) containing 10% fetal calf serum (Life Tech Oriental) and took off with 0.5 g/L trypsin-0.2 g/L EDTA (Life Tech Oriental). The cells were washed with PBS (Life Tech Oriental), centrifuged (1000 rpm, 5 minutes), and suspended in PBS. With using Gene Pulser (Bio-Rad Laboratories), DNA was introduced into the cells under the conditions shown below. That is, to the cuvette of 0.4 cm gap were added 8×10^6 cells and 10 μg of plasmid pCKR^5 for expression of human CCR5, and electroporation was carried out under 0.25 kV of voltage and 960 μF of capacitance. The cells were transferred into Ham's F12 medium (Nihon Pharmaceutical) containing 10% fetal calf serum, and cultivated for 24 hours. The cells were again took off and centrifuged, and suspended in Ham's F12 medium (Nihon Pharmaceutical) containing 10% fetal calf serum and 500 μg/ml of geneticin (Life Tech Oriental). The suspension was diluted to give 10^4 cells/ml of the suspension, which was inoculated on 96 well plate (Becton Dickinson) to give geneticin resistant cells. The resulting geneticin resistant cells were cultivated in 96 well plate (Becton Dickinson), and cells expressing CCR5 were selected from the geneticin resistant cells. That is, in assay buffer (Ham's F12 medium containing 0.5% BSA and 20 mM HEPES (Wako Pure Chemical, pH7.2) to which was added 200 pM of [^125 I]-RANTES (Amersham) as ligand, binding reaction as carried out at room temperature for 40 minutes, and the buffer was washed with cooled PBS. To the buffer was added 50 μl/well of 1M NaOH, and the mixture was stirred. Radioactivity was determined with γ-counter to select CHO/CCR5 cells which specifically bind to the ligand.
The CHO/CCR5 were inoculated on 96 well microplate (5×10^4 cells/well) and cultivated for 24 hours. The medium was removed by means of suction, and to each well was added assay buffer containing Test Compound (1 μM) and then 100 pM of [^125 I]-RANTES (Amersham) as ligand. Binding assay was carried out at room temperature for 30 minutes, and assay buffer was removed by means of suction. Each well was washed twice with cooled PBS, and 200 μl of Microscint-20 (Packard Instrument, Inc.) was added to each well. Radio-activity was determined with Top-Count Micro Scintillation Counter (Packard Instrument, Inc.).
According to the method described above, inhibition rate of Test Compound (whose number is referred to in the following Examples) to CCR5 binding.

Assay [1] deals with HIV-1. The assay can be described thus: Inhibitory Effect on HIV-1 Infection to MAGI^- CCR5 Cell. It is filed as cell-based, HIV-1 BA-L. The note with it: MAGI-CCR5 cells, 2 days. How it is done:
The plasmid where β-galactosidase gene was ligated downstream of HIV-1 LTR was introduced into CD4 positive HeLa cell, to which human CCR5 was further introduced to obtain transformant MAGI^- CCR5. By using said transformant MAGI^- CCR5, degree of HIV-1 infection was calculated from β-galactosidase activity (blue color due to decomposition of 5-bromo-4-chloro-3-indolyl-β-D-galactopyranoside).
Specifically, MAGI-CCR5 cells were suspended in DMEM medium containing 10% serum to prepare 5×10^4 cells/ml suspension. To each well of 96 well plate was inoculated 200 μl of the suspension, and the cells were cultivated at 37° C. overnight. The medium was removed by means of suction, and to the residue was added 100 μl of the above medium containing 1.6μM of Test Compound 96 or 0.064 μM of Test Compound 248 and 100 μl of the above medium containing 300 PFU of HIV-1 BA-L cells. The cells were cultivated at 37° C. for 2 days. The medium was removed by means of suction. To the residue was added 200 μl of cell fixative (PBS containing 1% formaldehyde and 0.2% glutaraldehyde), and the mixture was allowed to stand at room temperature for 5 minutes and washed twice with PBS. […] The number of blue cells was counted by microscope and defined as the number of cells infected with HIV-1.

Assay [2] relates to HIV-1. The experiment in a line: Inhibitory Effect on HIV-1 Infection to Human PBMC. The format is cell-based, HIV-1 BA-L. The following applies: 7 days, p24 antigen ELISA. Here is the method: From normal person human peripheral blood mononuclear cells (PBMC) were separated, and the cells were stimulated with 10 μg/ml of PHA (Phytohemaglutinin) and 20U/ml of interleukin-2 (IL-2) for 3 days. The cells were suspended in RPMI-1640 medium containing 20% serum to prepare 1×10^6 /ml suspension. To the suspension were infected HIV-1 BA-L cells (20 ng as an amount of p24 antigen), and viruses were absorbed at 37° C. for 2 hours. The cells were washed and suspended in RPMI-1640 medium containing 20% serum and IL-2 20 U/ml to prepare 1×10^5 /ml suspension. To the PBMC suspension was added the same amount of a solution which contains 2.0 μM of Test Compound 96 or 0.32 μM of Test Compound 248, and the cells were cultivated at 37° C. for 7 days in carbon dioxide gas incubator. The amount of p24 antigen in supernatant of the cultivated medium was determined by enzyme-linked immunosorbent assay (ELISA) and defined as degree of HIV-1 infection.
(An ELISA detects its analyte on a solid surface through an enzyme-linked reagent.)

T1 sequence (P51681 whole entry): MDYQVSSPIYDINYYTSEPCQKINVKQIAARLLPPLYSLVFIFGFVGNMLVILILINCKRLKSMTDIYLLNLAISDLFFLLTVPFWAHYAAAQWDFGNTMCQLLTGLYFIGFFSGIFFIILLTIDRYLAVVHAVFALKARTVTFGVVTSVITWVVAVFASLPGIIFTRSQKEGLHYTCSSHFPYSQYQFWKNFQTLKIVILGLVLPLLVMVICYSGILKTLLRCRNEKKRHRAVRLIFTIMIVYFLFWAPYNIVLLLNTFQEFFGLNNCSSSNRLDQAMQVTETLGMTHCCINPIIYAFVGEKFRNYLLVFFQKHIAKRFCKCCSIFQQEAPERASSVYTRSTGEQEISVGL

With `Cc1ccc(-c2ccc3c(c2)C=C(C(=O)Nc2ccc(C[N+]4(C)CCCCC4)cc2)CC3)cc1` [Compound 16, 1-methyl-1-[4-[7-(4-methylphenyl)-3,4-dihydronaphthalene-2-carboxamido]benzyl]piperidinium iodide], at human CCR5, the inhibition (commonly the relative decrease from the control value, in per cent) at 1 µM came to 88%. Still for that read-out and setting: in the case of `Cc1ccc(-c2ccc3c(c2)C=C(C(=O)Nc2ccc(C[N+]4(C)CCCCC4)cc2)CCC3)cc1` [Compound 92, 1-(N-(2-(4-methylphenyl)-6,7-dihydro-5H-benzocycloheptene-8-carbonyl)-4-aminobenzyl)-1-methylpiperidinium iodide] it was 100%. Turning to `Cc1ccc(-c2ccc3c(c2)C=C(C(=O)Nc2ccc(C[N+]4(C)CCCCC4)cc2)CCO3)cc1` [Compound 96, 1-(N-(7-(4-methylphenyl)-2,3-dihydro-1-benzoxepin-4carbonyl)-4-aminobenzyl)-1-methylpiperidinium iodide], the inhibition at 1 µM at human CCR5 is 93%. Besides, the “inhibition rate on HIV-1 infection” value with HIV-1 [1] (100 μl medium containing 1.6 μM Test Compound 96 plus 100 μl medium with 300 PFU HIV-1 BA-L) came to 92%; with HIV-1 [2] (same amount of solution containing 2.0 μM Test Compound 96 added), 96%. For `Cc1ccc(-c2ccc3c(c2)C=C(C(=O)Nc2ccc(C[N+]4(C)CCCCC4)cc2)CCO3)cc1` [Compound 97, 1-(N-(7-(4-methylphenyl)-2,3-dihydro-1-benzoxepin-4-carbonyl)-4-aminobenzyl)-1-methylpiperidinium chloride], at human CCR5, the “Inhibition Rate (%) to CCR5 binding” value came out at 94%. As to `Cc1ccc(-c2ccc3c(c2)C=C(C(=O)Nc2ccc(CC[N+]4(C)CCCCC4)cc2)CCO3)cc1` [Compound 100, N-((7-(4-methylphenyl)-2,3-dihydro-1-benzoxepin-4-carbonyl)-2-(4-aminophenyl)ethyl)-N-methylpiperidinium iodide], the inhibition at 1 µM at human CCR5 was 100%. On to `Cc1ccc(-c2ccc3c(c2)C=C(C(=O)Nc2ccc(CN(C)C4CCOCC4)cc2)CCO3)cc1` [Compound 128, N-(4-(N-methyl-(N-tetrahydropyran-4-yl)aminomethyl)-phenyl)-7-(4-methylphenyl)-2,3-dihydro-1-benzoxepine-4-carboxamide], for which, on human CCR5, the inhibition at 1 µM came out at 87%. With `CC(C)(C)c1ccc(-c2ccc3c(c2)C=C(C(=O)Nc2ccc(CP4(=O)CCCCC4)cc2)CCO3)cc1` [Compound 180, N-(4-(pentamethylene)phosphorylmethyl-phenyl)-7-(4-tert-butylphenyl)-2,3-dihydro-1-benzoxepine-4-carboxamide], at human CCR5, the inhibition at 1 µM was determined as 99%. On to `Cc1ccc(-c2ccc(/C=C/C(=O)Nc3ccc(CP4(=O)CCCCC4)cc3)s2)cc1` [Compound 209, (E)-N-(4-pentamethylenephosphorylmethylphenyl)-3-[5-(4-methylphenyl)-thiophen-2-yl]acrylic amide], for which the inhibition at 1 µM on human CCR5 was determined as 80%. Consider `Cc1ccc(-c2ccc3c(c2)C=C(C(=O)Nc2ccc(C[N+](C)(C)C4CCOCC4)cc2)CCC3)cc1` [Compound 248, N,N-dimethyl-N-(4-(((2-(4-methylphenyl)-6,7-dihydro-5H-benzocyclohepten-8-yl)carbonyl)amino)benzyl)-N-(4-tetrahydropyranyl)ammonium chloride], for which the inhibition at 1 µM on human CCR5 was found to be 99%. Further, the results for the “inhibition rate on HIV-1 infection” value with HIV-1 [1] (100 μl medium containing 0.064 μM Test Compound 248 plus 100 μl medium with 300 PFU HIV-1 BA-L) and in the assay with HIV-1 [2] (same amount of solution containing 0.32 μM Test Compound 248 added) were 100% and 74%, respectively. As to `Cc1ccc(-c2ccc3c(c2)C=C(C(=O)Nc2ccc(C[N+](C)(C)C4CCC(=O)CC4)cc2)CCO3)cc1` [Compound 249, N,N-dimethyl-N-(4-(((7-(4-methylphenyl)-2,3-dihydro-1-benzoxepin-4-yl)carbonyl)amino)benzyl)-N-(4-oxocyclohexyl)ammoniumchloride], the inhibition at 1 µM at human CCR5 was determined as 96%.

As for `CCOc1ccc(-c2ccc3c(c2)C=C(C(=O)Nc2ccc(C[N+](C)(C)C4CCOCC4)cc2)CCO3)cc1` [Compound 250, N-(4-(((7-(4-ethoxyphenyl)-2,3-dihydro-1-benzoxepin-4-yl)carbonyl)amino)benzyl)-N,N-dimethyl-N-(4-tetrahydropyranyl)ammonium chloride], the inhibition at 1 µM at human CCR5 is 96%. As for `Cc1ccc(-c2ccc3c(c2)C=C(C(=O)Nc2ccc(CP4(=O)OCCCO4)cc2)CCO3)cc1` [Reference Example 51, 2-(4-(7-(4-methylphenyl)-2,3-dihydro-1-benzoxepin-4-carbonylamino)benzyl)-1,3,2-dioxaphosphorinane-2-oxide], the inhibition at 1 µM at human CCR5 worked out at 73%.

For the origin of these results see patent US6172061A, “Pharmaceutical composition for antagonizing CCR5 comprising anilide derivative” (Takeda Chemical Industries, Ltd., priority 1997, dated 2001).
